Results from patent US20260193255A1, “7-AZAINDOLE COMPOUNDS, PREPARATION METHOD THEREFOR, AND USE THEREOF” (Fudan University, priority 2022, published 2026).

How the values were obtained:
[1] = tested on: C26 tumor cancer cachexia model, BALB/c mice; test: Cancer cachexia animal model, compound 2 (C26 tumor, BALB/c mice, 5 mg/kg ig); type: in vivo, mouse; details: 5 mg/kg ig daily
Description: C26 cells were inoculated in T75 flasks. The culture system was 1640 medium containing 10% FBS with 1% penicillin-streptomycin. The flasks were placed in a 5% CO2, 37° C. environment for expansion culture. The cells were collected by centrifugation at 1000 rpm for 3 mins, and the culture medium was washed away with ice-cold PBS buffer, and a cell suspension of 10 million/ml was prepared. The cell suspension was inoculated into the left and right armpits of BALB/c mice at a concentration of 1 million for tumor development. When the tumor volume increased to 1000 mm^3, the tumor was removed and homogenized with 3 ml of ice saline/g to obtain a tumor tissue suspension. The mice to be inoculated were divided into groups according to their weight, and the cell suspension was inoculated into the left armpit of Balb/c mice at an inoculation volume of 100 μl per mouse. Treatment was started from the day after inoculation. Compound 2 was dissolved in 3% DMSO, 2% Solutol and 95% saline in sequence to form a uniform solution with the required concentration. The solution was prepared and used daily. The dose was 5 mg/kg and the compound was administered by the intragastric (ig) route. The body weight, temperature, tumor size and food intake of mice were monitored daily. […] When the tumor volume of mice in the model group reached 2.0× 103 mm^3 or their body weight decreased by 10%, they were considered to have entered the cachexia stage. The muscle grasp force of the mice's forelimbs was tested at these two stages. […] At the end of the experiment, the mice were killed by cervical dislocation and the gastrocnemius, tibialis anterior, right hind limb and tumor samples were obtained, and the sample weights were measured.
The method for detecting muscle grasp force was as follows: The muscle grasp force of mice was tested on the 5th day (pre-cachexia stage) and the 22nd day (cachexia stage) of the experiment. The mouse was steadily placed on the YLS-13A Mouse and Rat Grasp Force Tester by using the right hand, so that its forelimbs could tightly grasp the gripping disk, and the gripping disk was stabilized by using the left hand moving forward. When the left hand slowly released the gripping disk, the right hand immediately and slowly pulled the mouse's tail backwards until its forelimbs were separated from the gripping disk. The test was repeated 8 times for each mouse, and the mean value of the 8 measurements was used as the skeletal muscle strength index of each mouse.

ActRIIB = ActRIIB (Homo sapiens, UniProt Q13705); test: ActRIIB inhibitory activity, ADP-Glo assay kit; type: biochemical; details: ATP 25 μM, substrate 0.1 mg/mL, ActRIIB 20.0 ng/μL
Description: The ATP and substrate concentrations recommended by the ADP-Glo™ assay kit were used, which were 25 μM and 0.1 mg/mL, respectively, and a series of isocratic final ActRIIB concentrations were set up, which were 0, 0.47, 0.94, 1.88, 3.75, 7.5, 15, 30, and 60 ng/μL, respectively. According to the […] values obtained in the experiment, an ActRIIB concentration titration curve was drawn. The ActRIIB concentrations corresponding to the ratio of the signal value to the background value (i.e., signal-to-background ratio, SBR) in the range of 5-10 times are suitable for screening compounds for inhibition of ActRIIB activity. From the ActRIIB concentration titration curve, the final ActRIIB concentrations corresponding to SB5 and SB10 were calculated to be 14.9 and 23.7 ng/μL, respectively. Finally, a final concentration of 20.0 ng/μL was selected as the experimental concentration for screening compounds for their inhibitory activity against ActRIIB. The inhibitory efficiency of 7-azaindole compounds on ActRIIB was detected at concentrations of 0.1, 1, 10, and 100 nM, respectively.

mouse myoblasts (C2C12) = test: Atrophy of mouse myoblasts (C2C12) induced by C26 cell supernatant, myotube diameter by HE staining; type: cell-based; details: Mus musculus, 48 hours treatment, C26 supernatant-induced C2C12 myotubes, read-out: Myotube atrophy reversal rate
Description: C2C12 cells were inoculated in 24-well plates. The culture system was high-glucose DMEM medium containing 10% FBS with 1% penicillin-streptomycin. The plates were placed in a 5% CO2, 37° C. environment. When the cell growth density reached 50%-60%, the culture system was replaced with high-glucose DMEM culture medium containing 2% HS with 1% penicillin-streptomycin. Fresh 2% HS differentiation medium was replaced every 48 hours, and the cells were differentiated into mature cells on the 5th or 6th day. Additionally, C26 cells were inoculated in T75 flasks. The culture system was high-glucose DMEM medium containing 10% FBS with 1% penicillin-streptomycin. The flasks were placed in a 5% CO2, 37° C. environment. When subculturing, the cells were subcultured at 6 million cells/flask. After culturing in 20 ml of culture medium for 48 hours, the supernatant was collected and centrifuged at 1000 rpm for 3 mins. The supernatant was collected and centrifuged at 4000 rpm for 10 mins to obtain the C26 supernatant. The C26 supernatant and 2% HS differentiation solution were mixed at a ratio of 1:1 (volume ratio) as the muscle atrophy induction solution. Except for the control group in which 2% HS differentiation solution was added, for the other groups, an equivalent amount of muscular atrophy induction solution was added. One group was used as the model group, and the other groups were used as the treatment and experimental groups.
The diameter of myotubes after differentiation of mouse myoblasts (C2C12) was evaluated by using the diameter measurement method. The method for measuring the diameter of myotubes was as follows: after 48 hours of treatment, the myotubes were fixed with a fixative (anhydrous ethanol: formaldehyde: glacial acetic acid (volume ratio)=20:2:1) for more than 1 h and stained. The staining method used in the experiment is hematoxylin-eosin staining, referred to as HE staining for short. Hematoxylin stain is alkaline and positively charged, and it can easily bind to the negatively charged and acidic deoxyribonucleic acid (DNA) in the cell nucleus through ionic bonds to stain it blue; eosin is an acidic dye that dissociates into negatively charged anions in water, and it can easily bind to the positively charged amino groups of proteins in the cytoplasm to stain it red. The stained cells were placed under a high-power microscope to take pictures (magnification: 200 times), and the diameter of myotube cells was statistically analyzed using image J software. The muscle atrophy reversal rate was calculated according to the following formula: Muscle atrophy reversal rate=(average value of myotubes in the treatment group-average value of myotubes in the model group)/(average value of myotubes in the control group-average value of myotubes in the model group)×100%

cachectic patients = details: 30 mg/kg, Phase II; cited from earlier work

Chain of ActRIIB (Q13705 19-512): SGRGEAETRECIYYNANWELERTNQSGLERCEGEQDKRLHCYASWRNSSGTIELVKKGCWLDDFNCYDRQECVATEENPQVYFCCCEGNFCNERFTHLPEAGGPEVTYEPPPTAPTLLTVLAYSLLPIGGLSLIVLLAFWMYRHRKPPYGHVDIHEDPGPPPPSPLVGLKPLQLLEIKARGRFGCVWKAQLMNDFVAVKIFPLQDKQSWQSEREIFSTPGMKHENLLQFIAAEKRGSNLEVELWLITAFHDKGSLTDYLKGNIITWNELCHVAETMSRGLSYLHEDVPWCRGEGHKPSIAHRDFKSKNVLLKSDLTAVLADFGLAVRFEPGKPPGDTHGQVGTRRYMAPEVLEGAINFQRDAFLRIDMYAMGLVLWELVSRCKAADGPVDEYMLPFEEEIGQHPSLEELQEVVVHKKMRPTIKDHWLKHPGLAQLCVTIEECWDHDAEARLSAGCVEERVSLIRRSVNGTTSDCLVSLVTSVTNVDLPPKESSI

IC50 (ActRIIB) [nM] | Molecule | Average accumulative food intake vs C26 tumor model group [1] | Right hind limb weight (skeletal muscle atrophy) [1] | Tumor volume vs C26 tumor model group [1] | Muscle grasp force ([1]; cachexia stage, p=0.06) | Gastrocnemius mass (gastrocnemius atrophy) ([1]; p<0.05) | Tibialis anterior mass (tibialis anterior atrophy) ([1]; p<0.05) | Weight loss (tumor-bearing and tumor-free body weight) vs C26 tumor model group ([1]; p<0.05 at end of experiment) | inhibition at 1.25 µM (mouse myoblasts (C2C12); 1.25 μM) [%] | inhibition at 2.5 µM (mouse myoblasts (C2C12); 2.5 μM) [%] | inhibition at 5 µM (mouse myoblasts (C2C12); 5 μM) [%] | Increase of muscle volume (cachectic patients)
1.8 | CN1CCN(c2ccc(-c3cnc4[nH]cc(-c5cc[nH]n5)c4c3)cc2)CC1 [Compound 2, 3-(1H-pyrazol-3-yl)-5-[4-(4-methylpiperazin-1-yl)phenyl]-1H-pyrrolo[2,3-b]pyridine] | slightly higher than that in the C26 tumor model group | improve skeletal muscle atrophy in cachectic mice to a certain extent | slightly reduced compared with the C26 tumor model group, but there was no significant difference | significantly enhance the muscle grasp force of cachexia mice | significantly alleviate the gastrocnemius atrophy in cachectic mice | significantly alleviate the tibialis anterior atrophy in cachectic mice | significantly alleviate the weight loss of mice | 69.2 | 97.6 | 131 | 
 | Bimagrumab: antibody inhibitor of ActRIIB under development by Novartis (antibody, chains of the INN, looked up, V domains shown) VH: QVQLVQSGAEVKKPGASVKVSCKASGYTFTSSYINWVRQAPGQGLEWMGTINPVSGSTSYAQKFQGRVTMTRDTSISTAYMELSRLRSDDTAVYYCARGGWFDYWGQGTLVTVSS VL: QSALTQPASVSGSPGQSITISCTGTSSDVGSYNYVNWYQQHPGKAPKLMIYGVSKRPSGVSNRFSGSKSGNTASLTISGLQAEDEADYYCGTFAGGSYYGVFGGGTKLTVL |  |  |  |  |  |  |  |  |  |  | 5.0-7.8%
